Data taken from US20160374979A1, “Method of Treatment of Alopecia with Monoterpenoids” (CELLMID LIMITED, priority 2013, published 2016).
Entries after “also recorded” stand apart in the source; their conditions may differ.

Tested on: Alkaline Phosphatase (ALP) activity in dermal papilla (DP) cells treated with FGF-5
Assay: Dermal papilla alkaline phosphatase (DP-ALP) cell assay
Format: cell-based, human
Settings: for relative ALP activity of DP cells treated FGF-5: 0.005-0.5 mg/ml, GSK3 inhibitor IX + rhFGF-5 1 μg/mL, 3 days, absorbance 490 nm
Description: Dermal papilla cells were prepared according to the methods described in WO2013/105417, Briefly, hairs were pulled from the scalp of a healthy subject showing normal non-alopecia hair growth using tweezers. Hair follicles with dermal papilla were thus obtained at a rate of approximately one for every 100 hairs pulled. The hair follicles with dermal papilla were separated from the hair using tweezers and transferred into a saline for inspection under a microscope. Under a microscope, each dermal papilla was isolated from a respective hair follicle using tweezers and a scalpel. Approximately 2000 isolated dermal papilla cells were then transferred to a 35 mm cell culture dish together 1-2 ml of cell culture medium, after which time the cells were cultured at 37° C. to produce a primary cell culture of dermal papilla. The cell culture medium consisted of approximately 90% DMEM medium, 10% fetal bovine serum (final concentration: 10%), FGF2 (final, concentration: 10 ng/ml), and penicillin-streptornycin solution (final concentration: 1 μg/ml) for every 2 mL of medium. Cell culture conditions were maintained for more than 14 days until dermal papilla cells covered approximately 40% of the area of the 35 mm culture dish, at which time subcultures were performed. To prepare the subcultures, the cell culture medium was removed from the 35 mm culture dish and the adherent cells were washed once with 2 ml of saline (at room temperature). 1 ml Trypsin-EDTA solution (0.1% trypsin and 0.02% EDTA) was then added to the 35 mm culture dish and left to stand for 4 minutes at 37° C. Dissociated dermal papilla cells were then recovered from the 35 mm dish, and seeded to a new 100 mm dish, and cultured in media under the same conditions as for the primary cell culture described above.
When the dermal papilla cells covered approximately 70-80% of the area of each 100 mm culture dish, the sub-confluent cells were subcultured as before. The process was repeated until sufficient cells were obtained to screen compounds of interest.
Once sufficient DP cells were obtained, the cells were harvested to provide a cell suspension. To harvest the DP cells, the cell culture medium was removed from the culture dish, and the adherent cells were washed with saline at room temperature. Trypsin-EDTA solution was then added under conditions described supra to dissociate the cells from the cell culture dish. Approximately 5×10^5 of the dissociated cells were resuspended in 500 ml of assay medium containing 445 ml of DMEM medium, 50 ml of 10% fetal calf serum and 5 ml of antibiotic.
Aliquots of the cell suspension were transferred to the wells of cell culture dishes, and a single monoterpenoid listed in Example 1 e.g., (−)-4-terpinen-4-ol, (+)-4-terpinen-4-ol. (±)-4-terpinen-4-ol, α-terpineol, nonanal, linalyl acetate or piperitone, is added to each well at a concentration of 0.005 (mg/ml) or 0.01 (mg/ml) or 0.05 (mg/ml) or 0.1 (mg/ml) or 0.5 (mg/ml). Cell suspensions were transferred to wells of a further cell culture dish to which minoxidil was then added at a concentration of 0.005 (mg/ml) or 0.01 (mg/ml) or 0.05 (mg/ml) or 0.1 (mg/ml) or 0.5 (mg/ml). A Wnt/β-catenin pathway activation agent e.g., Wnt3a or GSK-3 Inhibitor IX, as added to each of the cell cultures to produce an “activated cell culture”. Control cell cultures containing the same monoterpenoid compound or minoxodil, but lacking the Wnt/β-cinenin pathway activation agent, were processed in parallel. These activated and control cell cultures were divided further into duplicate cell culture samples either lacking FGF-5 or to which recombinant human FGF-5 (rhFGF-5; 1 μg/mL)) was added.
The cell culture samples were each cultured at 37° C. for 3 days under atmosphere containing less than 5% CO2. […]

Structure (SMILES): CC1=CC(=O)C(C(C)C)CC1 (stereo not drawn) [Piperitone, 3-Methyl-6-(propan-2-yl)cyclohex-2-en-1-one]
- relative ALP activity of DP cells treated FGF-5: increased relative ALP activity
- relative ALP activity of DP cells treated FGF-5 (listed as piperitone): high alkaline phosphatase activity; also recorded: higher alkaline phosphatase activity in dermal papillae than a racemic mixture of terpinen-4-al or (+)-Terpinen-4-ol
- FGF-5-inhibitory activity ranked from most active to least active by DP-ALP assay (rank order): Piperitone>(−)-terpinen-4-ol>(±)-Terpinen-4β-Terpineol> (+)-Terpinen-4-ol > Linalyl Acetate
